Reference: patent US7994219B2, “Approach to anti-microbial host defense with molecular shields with lipoxin compounds” (The Brigham and Women's Hospital, Inc., priority 2001, dated 2011)

How the values were obtained:
BPI [1] = test: Semi-quantitative RT-PCR of BPI transcript in KB cells; format: cell-based, human
BPI [2] = test: Quantitative genechip microarray transcriptional profile of KB epithelial cells exposed to ATLa; format: cell-based, human; conditions: 1 μM ATLa
BPI [3] = test: RT-PCR of BPI transcript in OKF6, T84 and Caco2 epithelial cells; format: cell-based, human
BPI [4] = test: Immunoprecipitation of biotinylated plasma membrane protein and avidin blot for surface BPI in T84 cells; format: cell-based, human; conditions: 1 μM ATLa, at 36 h
Experimental: Epithelial cells were grown to confluence on 45 cm^2 permeable supports, and exposed to ATLa or vehicle (0.01% EtOH), as indicated. Cells were washed extensively in HBSS, cooled to 4° C., and extracellular proteins were biotinylated (1 mM NHS-biotin (Pierce Chemical Co., Rockford, Ill.) in HBSS) as previously described (18). Plasma membranes were isolated using nitrogen cavitation (200 psi, 8 min., 4° C.) as previously described (18). Recombinant human BPI (100 ng/ml, was directly biotinylated and excess biotin was removed by multiple washes on a 5 kD cut-off membrane filter (Amicon, Beverly Mass.). Fractions were pre-cleared with 50 μl pre-equilibrated protein-G sepharose (Pharmacia, Uppsala Sweden). Immunoprecipitation of BPI was performed with goat polyclonal anti-BPI followed by addition of 50 μl pre-equilibrated protein-G sepharose and overnight incubation. Washed immunoprecipitates were boiled in non-reducing sample buffer (2.5% SDS, 0.38 M Tris pH 6.8, 20% glycerol, and 0.1% bromophenol blue), resolved by non-reducing SDS-PAGE (18% polyacrylamide gel), transferred to nitrocellulose, and blocked overnight in blocking buffer. Biotinylated proteins were labeled with streptavidin-peroxidase (Pierce Chemical Co., Rockford, Ill.) and visualized by enhanced chemiluminescence (ECL; Amersham, Arlington Heights, Ill.).

BPI [5] = test: Confocal microscopy of surface BPI on non-permeabilized Caco2 cells; format: cell-based, human; conditions: 1 μM for 24 hr
Experimental: OKF6 or Caco2 cells were grown to confluence on acid washed 12 mm glass coverslips. Monolayers were exposed to indicated experimental conditions, washed once in phosphate buffered saline, and fixed for 10 minutes at room temperature in 1% paraformaldehyde in cacodylate buffer (0.1M sodium cacodylate; pH 7.4, 0.72% sucrose). After washing twice with PBS, the cells were incubated for 1 hour with rabbit polyclonal BPI antisera (1:300 dilution) or control sera (equivalent dilution depleted of specific antibody through 3 consecutive adsorptions with sepharose beads covalently linked to rBPI via cyanogens bromide coupling, kit from Pierce Chemical Co., Rockford, Ill.). After washing, the monolayers were incubated with goat anti-rabbit Oregon Green (1 μg/ml, Molecular Probes, Eugene, Oreg.). Cells were imaged on a BioRad MRC-600 confocal fluorescence microscope.

Salmonella typhimurium = test: Bacterial killing assay: adherent Caco2 cells with Salmonella typhimurium (CFU); format: cell-based; conditions: Caco2 pre-exposure to 1 μM ATLa, 24 hr; killing over 60 min
Experimental: Salmonella typhimurium (strain 14028 from American Type Culture Collection, Rockville, Md.) were cultured and grown in Luria broth as previously described (22). In subsets of experiments, Enterococcus faecalis (strain PCI 1326 from American Type Culture Collection, Rockville, Md.) were cultured as previously described (23). Caco2 epithelial cells were grown to confluence of 60 mm petri dishes and exposed to indicated experimental conditions. Cells were washed once with HBSS, and washed bacteria were added to epithelial monolayers at a ratio of 50 bacteria per adherent epithelial cell. Incubations were allowed to proceed for 90 minutes or as indicated on a rotating platform. Parallel samples omitting epithelial cells were used as controls. Following incubation, supernatants were collected and epithelial cells were hypotonically lysed with 1 ml ice cold water. Bacteria were pelleted, dilutions of both pellets and supernatants were plated, incubated overnight at 37° C., and colony counts were performed. In subsets of experiments, anti-BPI antisera (1:300 in HBSS) or anti-BPI antisera pre-adsorbed with rBPI (1:300 in HBSS), as indicated, were added 30 minutes prior to incubation with bacteria. Data are presented as the mean±S.E.M. CFU.

bacteria = test: Direct incubation of ATLa or anti-BPI with bacteria and colony counts; format: cell-based; conditions: direct incubation with bacteria, no epithelial cells; data not shown

## CCCCCC/C=C/C=C/C=C/C=C/[C@@H](O)[C@@H](O)CCCC(=O)O [15-deoxy-LXA4, reference compound]
BPI [1]; epithelial exposure to similar concentrations as ATLa, data not shown
  induction of BPI at the mRNA level: no induction

## O=C(O)CCC[C@H](O)[C@H](O)/C=C/C=C/C=C\C=C\[C@@H](O)COc1ccc(F)cc1 [ATLa, 15-epi-16-(para-fluoro)-phenoxy-LXA4]
BPI [2]; 4 hrs exposure
  BPI mRNA increase over control (microarray): 3.2 fold
BPI [2]; 8 hrs exposure
  BPI mRNA increase over control (microarray): 2.9 fold
BPI [1]; KB cells, 1 μM, 8 h, compared to vehicle control
  maximal increase of BPI transcript relative to β-actin by densitometry: 4.3 fold
BPI [1]; KB cells, 8 hr, 28 cycles of PCR, approximate, read-out: EC50 of BPI transcript induction (dose response)
  EC50: ~50 nM
BPI [3]; OKF6, T84 and Caco2 cells, 1 μM, 26 cycles of PCR
  BPI induction relative to β-actin: prominent pattern of time-dependent BPI induction
BPI [4]
  maximal increase of ~55 kDa surface protein consistent with BPI by densitometry: 12.5 fold
BPI [5]
  surface-bound BPI expression: increased expression
Salmonella typhimurium
  increase in killing of S. typhimurium: ~60%
bacteria
  direct bactericidal activity or non-specific agglutination: not explained by bactericidal activity or non-specific agglutination

## pertussis toxin [reference compound]
BPI [3]; Caco2 pre-exposure to pertussis toxin 1 μM, 30 min, ATLa 1 μM, 18 h
  decrease in BPI induction by ATLa: 65%
